Laboratory results: patent publication US20250214986A1, “P2X3 INHIBITOR COMPOUND, SALT THEREOF, POLYMORPH THEREOF AND USE THEREOF” (HUMANWELL HEATHCARE (GROUP) CO., LTD., priority 2022, published 2025)
≈ marks a conversion by molar mass, not a printed value.

Key:
[1] = Pharmacokinetic assay in mice; type: in vivo, male ICR mice; conditions: for AUC(0-t) / Cmax / Tmax / half-life: male, ICR, mouse, plasma, mice, oral intragastric administration, 10 mg/kg; for half-life: read-out: T½ (converted)
Procedure: Pharmacokinetic assay in mice was performed, wherein the mice used were male ICR mice weighing 20-25 g and fasted overnight. 3 mice were taken and given the compound by oral intragastric administration at 10 mg/kg, and blood was collected before administration and at 15 min, 30 min, 1 h, 2 h, 4 h, 8 h, and 24 h after administration. The blood samples were centrifuged at 6800 g at 2-8° C. for 6 min, and plasma was collected and stored at −80° C. […] The mixture was vortexed for 1 min and then centrifuged at 13000 rpm at 4° C. for 10 min. The supernatant was taken, and 3 times its amount of water was added for mixing. A proper amount of the resulting mixture was taken for LC-MS/MS analysis. The major pharmacokinetic parameters were analyzed using a non-compartmental model in the WinNonlin 7.0 software.

[2] = system: taste of SD rats; assay: Taste assay in rats (water vs. aqueous quinine intake); type: in vivo; conditions: 30 mg/kg, i.p., 0.3 mM aqueous quinine, 15 min intake half an hour after administration
Procedure: After 3 days of overnight water-deprivation training, SD rats were subjected to administration with the compound. Half an hour after administration, each animal was given one bottle of water and one bottle of 0.3 mM aqueous quinine solution. The water bottles were removed after 15 min, and the intake of water and the intake of 0.3 mM aqueous quinine solution by the rats were measured separately. The effect of the compound on the taste of SD rats was assessed based on the difference between the water intake and the aqueous quinine solution intake (FIG. 41).

[3] = system: citric acid/histamine-stimulated cough model; assay: Cough efficacy assay of histamine/citric acid in guinea pigs; type: in vivo; conditions: for Cough inhibition rate vs. vehicle (%) / Mean number of coughs within 15 min: histamine/citric acid nebulization, intranasal instillation
Procedure: (§1) Before enrollment, the animals were acclimatized for 3-7 days. Once their body weight reached the standard (300-400 g), they were numbered and randomly grouped. 0.25-24 h before the start of the cough assessment, the compound or excipient was administered to the guinea pigs via intranasal instillation. The dose range for the administration of the test substance was 0.17-1.5 mg/kg. During the cough assessment, after the animals were acclimated in a whole-body plethysmography box, they were given histamine nebulization, followed by citric acid nebulization. The number of coughs and the cough latency of the animals were recorded within 22 min from the start of the histamine nebulization until the end of the observation period. For the statistics of experimental data, the one-way ANOVA method was used to analyze and compare the data of the groups. Statistical analysis results with p<0.05 were considered to indicate significant differences. Pairwise comparisons were performed using the t-test method to assess differences.

[4] = system: citric acid/ATP-stimulated cough model; assay: Cough efficacy assay of ATP/citric acid in guinea pigs; type: in vivo; conditions: for Cough inhibition rate vs. vehicle (%) / Mean number of coughs within 15 min: ATP/citric acid nebulization, intranasal instillation
Procedure: as §1, with “ATP” for “histamine”, “and after a few minutes, they were given” for “followed by”, “15” for “22”, “citric acid nebulization. The” for “histamine nebulization until the end of the observation period. For the statistics of experimental data, the”

[5] = Dynamic solubility experiment at 37° C.; type: physicochemical
Procedure: In the test, the purity, dynamic solubility and stability were tested using an Agilent 1260 high-performance liquid chromatograph, the molar ratio of salt-forming ions was tested using ion chromatography, and the analytical conditions are shown in Tables A-4 and A-5 below.
Solids at a feeding concentration of 10 mg/mL (calculated based on free base) were rotationally mixed with corresponding vehicles at 37° C. […] After sampling at each time point, the samples were centrifuged (at 10000 rpm) and filtered (through a 0.45 μm PTFE filter head). The HPLC concentrations and pH values of the filtrates were determined.
100.2 mg of NaCl and 50.3 mg of Triton X-100 were weighed into a 50 mL volumetric flask and then completely dissolved by addition of purified water. 816 μL of 1 M hydrochloric acid was added, and the pH was adjusted to 1.8 with 1 M hydrochloric acid or 1 M NaOH solution. The mixed solution was brought to the volume by addition of purified water.
170.5 mg of anhydrous NaH2PO4, 22.2 mg of NaOH, and 310.9 mg of NaCl were weighed into a 50 mL volumetric flask and then completely dissolved by addition of purified water. The pH was adjusted to 6.5 with 1 M hydrochloric acid or 1 M NaOH solution. The mixed solution was brought to the volume by addition of purified water. Subsequently, 55.1 mg of SIF powder was weighed into a 25 mL volumetric flask and completely dissolved with the above solution, and the mixed solution was brought to the volume.
0.21 mL of glacial acetic acid, 101.6 mg of NaOH, and 295.4 mg of NaCl were added into a 25 mL volumetric flask and then completely dissolved by addition of about 20 mL of purified water. The pH was adjusted to 5.0 with 1 M hydrochloric acid or 1 M NaOH solution. The mixed solution was brought to the volume by addition of purified water, and then 280.8 mg of SIF powder was weighed into the flask and completely dissolved.

[6] = Hygroscopicity by dynamic vapor sorption (DVS); type: physicochemical
Procedure: Dynamic vapor sorption (DVS) curves were acquired on a DVS IntrInsic from Surface Measurement Systems (SMS). The relative humidity at 25° C. was corrected with the deliquescence points of LiCl, Mg(NO3)2, and KCl.
Starting at 0% RH, the test acquired the percentage changes in mass of the samples when the humidity changed (0% RH to 95% RH to 0% RH) at a constant temperature of 25° C.

[7] = Solid state stability (XRPD and HPLC); type: physicochemical
Procedure: In the test, the purity, dynamic solubility and stability were tested using an Agilent 1260 high-performance liquid chromatograph, the molar ratio of salt-forming ions was tested using ion chromatography, and the analytical conditions are shown in Tables A-4 and A-5 below. [table]

[8] = Competitive suspension tests of free base crystalline forms A/B; type: physicochemical
Procedure: In order to confirm the thermodynamic transformation relationship between the anhydrous free base crystalline forms A and B under different temperature conditions, competitive suspension tests in n-heptane and toluene at room temperature and 50° C. were set up.

[9] = citric acid/histamine-stimulated cough model
[10] = citric acid/ATP-stimulated cough model
[11] = 25° C./60% RH/uncovered, 1 month
[12] = 25° C./60% RH/uncovered, 1 week
[13] = 40° C./75% RH/uncovered, 1 month
[14] = 40° C./75% RH/uncovered, 1 week

Cc1cnc(-c2cc(O[C@@H](C)[C@@H](C)O)cc(C(=O)N[C@H](C)c3cnc(C(F)(F)F)nc3)c2F)s1 [Compound of formula I, 2-fluoro-5-(((2S,3R)-3-hydroxybutan-2-yl)oxy)-3-(5-methylthiazol-2-yl)-N—((R)-1-(2-(trifluoromethyl)pyrimidin-5-yl)ethyl)benzamide]
AUC(0-t) [1]: 15000 ng·h/mL | Cmax [1]: 3380 ng/mL | Tmax [1]: 0.5 h | half-life [1]: 2.89 h | pharmacokinetic properties compared to the control compounds 1 and 2 ([1]; mouse model): certain improvements in their pharmacokinetic properties | Water/aqueous quinine solution intake ratio [2]: 29.4 | cough latency [3, 9]: prolonged the cough latency | number of coughs compared to control compound 1 [3, 9]: significantly reduced the number of coughs | Cough inhibition rate vs. vehicle (%) [3]: 66.5% | Mean number of coughs within 15 min [3]: 8.9 | Cough inhibition rate vs. vehicle (%) [4]: 68.2% | Mean number of coughs within 15 min [4]: 6.3 | cough latency [4, 10]: prolonged the cough latency | number of coughs compared to control compound 1 [4, 10]: significantly reduced the number of coughs

Cc1cnc(-c2cc(O[C@@H](C)[C@@H](C)O)cc(C(=O)N[C@H](C)c3cnc(C(F)(F)F)nc3)c2F)s1 [Free base crystalline form A, 2-fluoro-5-(((2S,3R)-3-hydroxybutan-2-yl)oxy)-3-(5-methylthiazol-2-yl)-N—((R)-1-(2-(trifluoromethyl)pyrimidin-5-yl)ethyl)benzamide]
solubility at 4 h ([5]; FaSSIF, 37 °C, pH 6.5, fassif, thermodynamic from solid, FaSSIF, 4 h, read-out: S: solubility): 8 µg/mL (≈ 16 µM) | Crystalline form change ([5]; FaSSIF, 1 h): No | S: solubility ([5]; FaSSIF, 1 h): 10 µg/mL | pH of filtrate ([5]; FaSSIF, 1 h): 6.5 | Crystalline form change ([5]; FaSSIF, 4 h): No | pH of filtrate ([5]; FaSSIF, 4 h): 6.5 | Crystalline form change ([5]; FaSSIF, 24 h): No | S: solubility ([5]; FaSSIF, 24 h): 9 µg/mL | pH of filtrate ([5]; FaSSIF, 24 h): 6.5 | solubility at 24 h ([5]; FeSSIF, 37 °C, pH 5, fessif, thermodynamic from solid, FeSSIF, 24 h, read-out: S: solubility): 25 µg/mL (≈ 50.2 µM) | Crystalline form change ([5]; FeSSIF, 1 h): No | S: solubility ([5]; FeSSIF, 1 h): 23 µg/mL | pH of filtrate ([5]; FeSSIF, 1 h): 5.0 | Crystalline form change ([5]; FeSSIF, 4 h): No | S: solubility ([5]; FeSSIF, 4 h): 23 µg/mL | pH of filtrate ([5]; FeSSIF, 4 h): 5.0 | Crystalline form change ([5]; FeSSIF, 24 h): No | pH of filtrate ([5]; FeSSIF, 24 h): 5.0 | Crystalline form change ([5]; H2O, 1 h): No | S: solubility ([5]; H2O, 1 h): 3 µg/mL | pH of filtrate ([5]; H2O, 1 h): 8.8 | Crystalline form change ([5]; H2O, 4 h): No | S: solubility ([5]; H2O, 4 h): 3 µg/mL | pH of filtrate ([5]; H2O, 4 h): 8.9 | Crystalline form change ([5]; H2O, 24 h): No | S: solubility ([5]; H2O, 24 h): 3 µg/mL | pH of filtrate ([5]; H2O, 24 h): 9.0 | crystalline form changes in the dynamic solubility tests ([5]; H2O, SGF, FaSSIF, FeSSIF): did not undergo any crystalline form changes | Crystalline form change ([5]; SGF, 1 h): No | S: solubility ([5]; SGF, 1 h): 13 µg/mL | pH of filtrate ([5]; SGF, 1 h): 1.8 | Crystalline form change ([5]; SGF, 4 h): No | S: solubility ([5]; SGF, 4 h): 13 µg/mL | pH of filtrate ([5]; SGF, 4 h): 1.8 | Crystalline form change ([5]; SGF, 24 h): No | S: solubility ([5]; SGF, 24 h): 12 µg/mL | pH of filtrate ([5]; SGF, 24 h): 1.8 | crystalline form after DVS test ([6]; 0% RH to 95% RH to 0% RH, 25° C.): remained unchanged | vapor sorption ([6]; 25° C./80% RH): about 0.91% | hygroscopicity ([6]; DVS, 25° C./80% RH): slight hygroscopicity | HPLC Purity (area %) [7, 11]: 99.33 area % | HPLC purity Relative to starting (%) [7, 11]: 99.96% | HPLC Purity (area %) [7, 12]: 99.38 area % | HPLC purity Relative to starting (%) [7, 12]: 100.01% | HPLC Purity (area %) [7, 13]: 99.43 area % | HPLC purity Relative to starting (%) [7, 13]: 100.06% | HPLC Purity (area %) [7, 14]: 99.51 area % | HPLC purity Relative to starting (%) [7, 14]: 100.14% | change of HPLC purity after placement under the corresponding conditions ([7]; 60° C. sealed 1 day, 25° C./60% RH and 40° C./75% RH uncovered 1 week/1 month): no significant change | HPLC Purity (area %) ([7]; 60° C./sealed, 1 day): 99.44 area % | HPLC purity Relative to starting (%) ([7]; 60° C./sealed, 1 day): 100.07% | HPLC Purity (area %) ([7]; Starting): 99.37 area % | thermodynamic stability of the crystalline form ([8]; room temperature and 50° C.): thermodynamically stable crystalline form

Cc1cnc(-c2cc(O[C@@H](C)[C@@H](C)O)cc(C(=O)N[C@H](C)c3cnc(C(F)(F)F)nc3)c2F)s1 [Free base crystalline forms A + B]
Resulting crystalline form after competitive suspension ([8]; Toluene, 50° C., 2 d): Free base crystalline form A | Resulting crystalline form after competitive suspension ([8]; Toluene, RT, 5 d): Free base crystalline form A | Resulting crystalline form after competitive suspension ([8]; n-Heptane, 50° C., 2 d): Free base crystalline form A | Resulting crystalline form after competitive suspension ([8]; n-Heptane, RT, 42 d): Free base crystalline form A

Cc1cnc(-c2cc(O[C@@H]3CCOC3)cc(C(=O)N[C@H](C)c3cnc(C(F)(F)F)nc3)c2)s1 [Control compound 1, reference compound]
AUC(0-t) [1]: 5200 ng·h/mL | Cmax [1]: 1250 ng/mL | Tmax [1]: 0.5 h | half-life [1]: 2.41 h | Cough inhibition rate vs. vehicle (%) [3]: 57.1% | Mean number of coughs within 15 min [3]: 11.4 | Cough inhibition rate vs. vehicle (%) [4]: 59.1% | Mean number of coughs within 15 min [4]: 8.1
